{"source": "ChEMBL document CHEMBL1148572", "about": "“1-((S)-2-aminopropyl)-1H-indazol-6-ol: a potent peripherally acting 5-HT2 receptor agonist with ocular hypotensive activity” (J Med Chem, 2006)", "key": {"[1]": {"target": "T1, Opioid receptors; mu/kappa/delta (Homo sapiens) (UniProt P41145+P41143+P35372)", "T1 sequence (P35372 whole entry, looked up)": "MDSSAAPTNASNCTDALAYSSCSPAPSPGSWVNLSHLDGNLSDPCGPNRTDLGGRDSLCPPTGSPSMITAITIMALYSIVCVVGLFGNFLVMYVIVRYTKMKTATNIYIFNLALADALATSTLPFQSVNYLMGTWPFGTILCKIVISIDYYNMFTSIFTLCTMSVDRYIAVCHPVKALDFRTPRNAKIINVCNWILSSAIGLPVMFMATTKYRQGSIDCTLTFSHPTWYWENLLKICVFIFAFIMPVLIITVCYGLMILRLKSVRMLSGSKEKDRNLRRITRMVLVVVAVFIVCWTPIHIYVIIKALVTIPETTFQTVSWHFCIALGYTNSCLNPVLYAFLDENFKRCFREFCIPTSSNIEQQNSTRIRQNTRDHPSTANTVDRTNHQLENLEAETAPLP", "T1 sequence (P41143 whole entry, looked up)": "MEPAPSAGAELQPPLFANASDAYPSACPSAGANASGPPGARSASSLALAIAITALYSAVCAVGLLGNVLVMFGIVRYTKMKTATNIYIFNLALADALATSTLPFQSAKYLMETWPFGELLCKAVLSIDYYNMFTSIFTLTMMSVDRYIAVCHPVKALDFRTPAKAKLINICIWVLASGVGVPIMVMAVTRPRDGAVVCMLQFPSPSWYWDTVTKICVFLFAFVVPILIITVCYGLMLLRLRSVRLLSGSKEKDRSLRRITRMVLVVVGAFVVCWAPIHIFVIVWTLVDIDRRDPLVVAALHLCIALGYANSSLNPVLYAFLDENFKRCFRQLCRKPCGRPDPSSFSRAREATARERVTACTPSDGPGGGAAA", "T1 sequence (P41145 whole entry, looked up)": "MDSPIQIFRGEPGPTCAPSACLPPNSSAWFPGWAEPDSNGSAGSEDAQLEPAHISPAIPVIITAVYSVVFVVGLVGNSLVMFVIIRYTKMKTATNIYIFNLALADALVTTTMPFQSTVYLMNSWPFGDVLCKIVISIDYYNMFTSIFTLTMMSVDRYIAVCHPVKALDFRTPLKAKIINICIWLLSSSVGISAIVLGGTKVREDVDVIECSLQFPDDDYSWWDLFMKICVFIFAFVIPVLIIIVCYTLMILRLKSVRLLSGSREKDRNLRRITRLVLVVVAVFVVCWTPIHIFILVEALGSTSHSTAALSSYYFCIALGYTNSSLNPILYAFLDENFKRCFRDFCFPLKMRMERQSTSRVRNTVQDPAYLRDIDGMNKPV", "assay": "Inhibition of non selective binding to opiate receptor at 100 nM", "format": "protein assay"}, "[2]": {"target": "Leukotriene B4 receptor (Homo sapiens) (UniProt Q9NPC1+Q15722)", "assay": "Inhibition of leukotriene B4 at 10 uM", "format": "protein assay"}, "[3]": {"target": "T2, monoamine oxidase A (MAO-A) (Rattus norvegicus, UniProt P21396)", "T2 sequence (P21396 whole entry)": "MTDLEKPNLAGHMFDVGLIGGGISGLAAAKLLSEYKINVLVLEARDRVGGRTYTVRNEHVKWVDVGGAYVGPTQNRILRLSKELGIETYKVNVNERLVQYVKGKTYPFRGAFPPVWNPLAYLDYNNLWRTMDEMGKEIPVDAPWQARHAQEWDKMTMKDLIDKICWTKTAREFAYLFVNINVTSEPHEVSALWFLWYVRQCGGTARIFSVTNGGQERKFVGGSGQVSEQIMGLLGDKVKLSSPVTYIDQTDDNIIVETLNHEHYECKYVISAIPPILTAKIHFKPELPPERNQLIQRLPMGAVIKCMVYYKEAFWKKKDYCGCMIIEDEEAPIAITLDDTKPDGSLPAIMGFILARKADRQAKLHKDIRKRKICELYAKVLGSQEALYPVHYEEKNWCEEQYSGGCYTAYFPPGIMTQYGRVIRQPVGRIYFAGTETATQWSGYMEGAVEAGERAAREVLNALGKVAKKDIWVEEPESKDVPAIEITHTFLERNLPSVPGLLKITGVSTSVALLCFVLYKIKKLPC", "assay": "Inhibition of monoamine oxidase A in rat brain at 1 nM", "format": "tissue-based"}, "[4]": {"target": "5-hydroxytryptamine receptor 2A (Homo sapiens, UniProt P28223)", "sequence (P28223 whole entry)": "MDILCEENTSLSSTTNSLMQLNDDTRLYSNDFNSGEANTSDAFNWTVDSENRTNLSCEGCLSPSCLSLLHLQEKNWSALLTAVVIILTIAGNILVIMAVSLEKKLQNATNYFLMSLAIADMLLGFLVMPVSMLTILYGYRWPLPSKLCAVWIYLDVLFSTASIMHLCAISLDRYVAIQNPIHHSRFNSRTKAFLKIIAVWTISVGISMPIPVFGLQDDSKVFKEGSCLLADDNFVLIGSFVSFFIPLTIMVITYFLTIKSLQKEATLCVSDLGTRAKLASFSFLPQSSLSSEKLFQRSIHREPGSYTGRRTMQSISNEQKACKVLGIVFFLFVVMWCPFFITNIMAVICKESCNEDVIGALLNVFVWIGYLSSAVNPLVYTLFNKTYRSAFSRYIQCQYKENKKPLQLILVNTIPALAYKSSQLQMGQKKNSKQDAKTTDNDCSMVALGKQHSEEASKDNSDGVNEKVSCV", "format": "cell-based, CHO"}, "[5]": {"target": "Glutamate receptor ionotropic kainate (Homo sapiens) (UniProt P39086+Q16478+Q16099+Q13002+Q13003)", "assay": "Inhibition of kainate receptor at 10 uM", "format": "protein-complex assay"}, "[6]": {"target": "Sigma non-opioid intracellular receptor 1 (Homo sapiens) (UniProt Q99720)", "sequence (Q99720 whole entry)": "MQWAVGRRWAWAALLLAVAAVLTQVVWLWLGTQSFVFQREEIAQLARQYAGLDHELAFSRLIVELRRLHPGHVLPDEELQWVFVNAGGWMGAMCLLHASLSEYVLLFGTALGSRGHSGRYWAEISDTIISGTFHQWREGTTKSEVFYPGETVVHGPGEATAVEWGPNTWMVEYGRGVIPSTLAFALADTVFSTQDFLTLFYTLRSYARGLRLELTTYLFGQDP", "assay": "Inhibition of non selective binding to sigma receptor at 100 nM"}, "[7]": {"target": "GABA-A receptor; benzodiazepine site (Homo sapiens) (UniProt P14867+P18507+P48169+Q99928+P34903+Q8N1C3+P47869+P31644+Q16445)", "assay": "Inhibition of central benzodiazepine site on GABAA receptor at 10 uM", "format": "protein-complex assay"}, "[8]": {"target": "T3, Alpha-2A adrenergic receptor (Homo sapiens, UniProt P08913)", "T3 sequence (P08913 whole entry)": "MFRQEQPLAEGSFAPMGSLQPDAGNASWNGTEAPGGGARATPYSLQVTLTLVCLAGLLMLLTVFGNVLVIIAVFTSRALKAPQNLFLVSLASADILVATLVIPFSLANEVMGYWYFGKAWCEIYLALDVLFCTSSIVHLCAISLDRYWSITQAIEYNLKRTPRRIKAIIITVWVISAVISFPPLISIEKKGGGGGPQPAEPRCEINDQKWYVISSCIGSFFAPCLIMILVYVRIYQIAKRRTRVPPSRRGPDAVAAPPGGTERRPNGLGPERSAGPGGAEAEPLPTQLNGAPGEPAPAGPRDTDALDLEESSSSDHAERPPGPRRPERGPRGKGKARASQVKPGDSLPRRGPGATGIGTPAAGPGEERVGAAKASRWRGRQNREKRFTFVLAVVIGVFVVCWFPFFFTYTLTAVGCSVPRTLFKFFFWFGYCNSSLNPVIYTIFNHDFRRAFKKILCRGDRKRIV", "assay": "Activity at adrenergic alpha-2A receptor expressed in human clonic adenocarcinoma HT29 cell by adenylyl cyclase assay", "format": "functional, cell-based, HT-29"}, "[9]": {"target": "GABA-A receptor; agonist GABA site (Homo sapiens) (UniProt P14867+P47870+P28472+P48169+P34903+P18505+P47869+P31644+Q16445)", "assay": "Inhibition of agonist site of GABAA receptor at 10 uM", "format": "functional"}, "[10]": {"target": "T1, Opioid receptors; mu/kappa/delta (Homo sapiens)", "assay": "Inhibition of non selective binding to opiate receptor at 1 nM", "format": "protein assay"}, "[11]": {"target": "Estrogen receptor (Homo sapiens) (UniProt Q92731+P03372)", "assay": "Inhibition of estrogen receptor at 100 nM", "format": "protein assay"}, "[12]": {"target": "Glutamate receptor ionotropic AMPA (Homo sapiens) (UniProt P48058+P42263+P42262+P42261)", "assay": "Inhibition of AMPA receptor at 10 uM", "format": "protein-complex assay"}, "MDR1 (P-gp)": {"system": "MDR1 (P-gp)", "assay": "Permeability from apical to basolateral side of the MDCK cell transfected with human MDR1", "format": "ADME, cell-based"}, "[13]": {"target": "Voltage-dependent N-type calcium channel subunit alpha-1B (Homo sapiens) (UniProt Q00975)", "sequence (Q00975 whole entry, looked up)": "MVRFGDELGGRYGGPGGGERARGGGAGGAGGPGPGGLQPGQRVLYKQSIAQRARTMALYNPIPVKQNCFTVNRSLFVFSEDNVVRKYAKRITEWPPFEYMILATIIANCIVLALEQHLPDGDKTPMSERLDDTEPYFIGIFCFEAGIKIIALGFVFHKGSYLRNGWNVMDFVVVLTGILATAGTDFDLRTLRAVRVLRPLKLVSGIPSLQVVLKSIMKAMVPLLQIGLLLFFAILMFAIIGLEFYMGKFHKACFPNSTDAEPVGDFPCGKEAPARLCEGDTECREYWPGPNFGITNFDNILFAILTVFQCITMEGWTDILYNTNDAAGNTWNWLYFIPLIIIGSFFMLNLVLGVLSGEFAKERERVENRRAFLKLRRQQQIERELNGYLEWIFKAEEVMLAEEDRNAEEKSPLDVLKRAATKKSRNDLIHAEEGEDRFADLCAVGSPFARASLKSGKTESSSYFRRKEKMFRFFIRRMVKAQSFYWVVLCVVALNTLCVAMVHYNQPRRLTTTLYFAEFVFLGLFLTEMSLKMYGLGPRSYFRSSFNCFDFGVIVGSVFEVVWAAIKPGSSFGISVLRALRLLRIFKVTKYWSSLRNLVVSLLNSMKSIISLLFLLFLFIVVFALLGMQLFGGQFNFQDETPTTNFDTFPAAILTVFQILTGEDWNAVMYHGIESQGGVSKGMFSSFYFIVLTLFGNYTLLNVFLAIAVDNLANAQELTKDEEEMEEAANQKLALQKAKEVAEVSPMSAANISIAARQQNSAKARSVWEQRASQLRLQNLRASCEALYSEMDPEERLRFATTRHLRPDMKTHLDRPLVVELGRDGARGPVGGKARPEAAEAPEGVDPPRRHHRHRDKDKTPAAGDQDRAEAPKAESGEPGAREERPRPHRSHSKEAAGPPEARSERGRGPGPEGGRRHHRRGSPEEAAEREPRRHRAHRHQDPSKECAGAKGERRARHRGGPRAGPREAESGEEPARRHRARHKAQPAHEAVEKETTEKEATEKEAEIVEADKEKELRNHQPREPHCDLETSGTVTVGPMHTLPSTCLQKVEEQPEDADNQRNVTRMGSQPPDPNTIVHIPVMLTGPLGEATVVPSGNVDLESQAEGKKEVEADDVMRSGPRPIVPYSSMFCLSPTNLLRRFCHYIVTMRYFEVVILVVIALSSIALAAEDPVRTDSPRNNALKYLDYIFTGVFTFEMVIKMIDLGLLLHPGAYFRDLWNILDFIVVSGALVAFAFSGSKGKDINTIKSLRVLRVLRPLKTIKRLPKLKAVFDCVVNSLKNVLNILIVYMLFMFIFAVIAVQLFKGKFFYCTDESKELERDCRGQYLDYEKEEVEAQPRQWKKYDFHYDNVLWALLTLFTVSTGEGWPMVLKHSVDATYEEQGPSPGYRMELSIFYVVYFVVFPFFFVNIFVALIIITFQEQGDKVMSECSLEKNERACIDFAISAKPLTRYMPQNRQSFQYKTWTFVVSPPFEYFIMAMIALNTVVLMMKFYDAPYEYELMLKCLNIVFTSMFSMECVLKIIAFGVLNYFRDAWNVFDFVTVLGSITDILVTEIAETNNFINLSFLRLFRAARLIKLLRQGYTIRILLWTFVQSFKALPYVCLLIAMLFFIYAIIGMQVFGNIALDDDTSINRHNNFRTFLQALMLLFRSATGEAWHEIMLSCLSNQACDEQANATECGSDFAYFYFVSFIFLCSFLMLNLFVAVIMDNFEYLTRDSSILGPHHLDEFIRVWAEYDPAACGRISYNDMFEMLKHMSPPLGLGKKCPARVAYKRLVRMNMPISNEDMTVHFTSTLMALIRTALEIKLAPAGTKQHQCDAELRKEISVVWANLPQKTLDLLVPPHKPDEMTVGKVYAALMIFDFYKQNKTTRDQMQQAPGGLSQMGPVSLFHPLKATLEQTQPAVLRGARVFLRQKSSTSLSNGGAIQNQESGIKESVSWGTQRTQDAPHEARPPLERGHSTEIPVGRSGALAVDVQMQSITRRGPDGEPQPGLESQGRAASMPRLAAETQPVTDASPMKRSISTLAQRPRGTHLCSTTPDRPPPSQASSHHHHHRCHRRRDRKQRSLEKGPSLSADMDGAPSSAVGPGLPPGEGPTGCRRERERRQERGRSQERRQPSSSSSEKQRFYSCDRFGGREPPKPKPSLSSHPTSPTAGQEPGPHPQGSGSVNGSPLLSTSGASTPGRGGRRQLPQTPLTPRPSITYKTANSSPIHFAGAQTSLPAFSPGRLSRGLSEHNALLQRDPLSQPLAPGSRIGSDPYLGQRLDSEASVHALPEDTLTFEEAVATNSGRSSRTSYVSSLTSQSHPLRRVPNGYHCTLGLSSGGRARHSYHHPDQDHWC", "assay": "Inhibitory activity at Calcium channel N type at 10 uM"}, "[14]": {"assay": "Inhibition of alpha-bungarotoxin insensitive nicotinic receptor at 1 nM"}, "[15]": {"assay": "Inhibitory activity at calcium activated potassium channel 6 at 1 nM"}, "[16]": {"target": "Muscarinic acetylcholine receptor (Homo sapiens) (UniProt P20309+P08173+P11229+P08172+P08912)", "assay": "Inhibition of non selective binding to muscarinic receptor at 10 uM", "format": "protein assay"}, "[17]": {"target": "Sodium-dependent serotonin transporter (Homo sapiens, UniProt P31645)", "sequence (P31645 whole entry)": "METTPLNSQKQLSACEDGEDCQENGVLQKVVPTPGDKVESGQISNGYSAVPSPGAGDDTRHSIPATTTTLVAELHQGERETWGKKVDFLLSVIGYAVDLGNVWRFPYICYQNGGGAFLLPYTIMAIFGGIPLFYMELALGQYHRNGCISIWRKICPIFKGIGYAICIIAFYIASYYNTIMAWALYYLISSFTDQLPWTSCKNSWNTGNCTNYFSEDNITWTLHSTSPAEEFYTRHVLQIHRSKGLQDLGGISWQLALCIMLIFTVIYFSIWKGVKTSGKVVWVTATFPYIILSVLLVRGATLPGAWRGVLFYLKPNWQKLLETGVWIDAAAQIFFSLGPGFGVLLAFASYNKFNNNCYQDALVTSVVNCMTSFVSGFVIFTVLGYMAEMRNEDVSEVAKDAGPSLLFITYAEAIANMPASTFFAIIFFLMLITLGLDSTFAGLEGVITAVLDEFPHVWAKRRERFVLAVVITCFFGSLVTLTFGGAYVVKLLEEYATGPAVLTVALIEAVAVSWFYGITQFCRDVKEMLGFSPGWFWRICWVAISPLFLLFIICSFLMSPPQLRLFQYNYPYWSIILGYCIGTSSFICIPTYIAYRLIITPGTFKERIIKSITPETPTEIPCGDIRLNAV", "assay": "Inhibitory activity against SERT"}}, "data": [{"smiles": "C[C@H](N)Cn1ncc2ccc(O)cc21", "values": [{"measurement": "inhibition", "setting": "[1]", "value": -2.14, "unit": "%"}, {"measurement": "inhibition", "setting": "[2]", "value": 13, "unit": "%"}, {"measurement": "inhibition at 0.001 µM", "setting": "[3]", "value": -14.4, "unit": "%"}, {"measurement": "Ki", "setting": "[4]", "value": 0.012, "unit": "µM"}, {"measurement": "inhibition", "setting": "[5]", "value": 6.62, "unit": "%"}, {"measurement": "inhibition", "setting": "[6]", "value": 0.17, "unit": "%"}, {"measurement": "inhibition", "setting": "[7]", "value": 22.8, "unit": "%"}, {"measurement": "EC50", "setting": "[8]", "value": "> 10", "unit": "µM"}, {"measurement": "inhibition", "setting": "[9]", "value": 6.69, "unit": "%"}, {"measurement": "inhibition", "setting": "[10]", "value": -6.1, "unit": "%"}, {"measurement": "inhibition", "setting": "[11]", "value": 13.3, "unit": "%"}, {"measurement": "inhibition", "setting": "[12]", "value": 7.62, "unit": "%"}, {"measurement": "Papp A→B", "setting": "MDR1 (P-gp)", "value": 0.76, "unit": "×10⁻⁶ cm/s"}, {"measurement": "inhibition", "setting": "[13]", "value": 15.4, "unit": "%"}, {"measurement": "inhibition", "setting": "[14]", "value": 7.15, "unit": "%"}, {"measurement": "inhibition", "setting": "[15]", "value": 10.4, "unit": "%"}, {"measurement": "inhibition", "setting": "[16]", "value": 12.2, "unit": "%"}, {"measurement": "Ki", "setting": "[17]", "value": "> 10", "unit": "µM"}]}]}
